According to ChEMBL document CHEMBL4837268, “Influence of Linker Attachment Points on the Stability and Neosubstrate Degradation of Cereblon Ligands” (ACS Med Chem Lett, 2021):
Activity calls are given as the source filed them. The calls are words filed in the database; no cut-off is given here.

Columns and labels:
[1] = Stability of the compound in acetonitrile/buffer mixture at pH 7.4 assessed as parent compound remaining measured after 24 hrs by HPLC analysis; type: physicochemical; conditions: read-out: Stabilty
[2] = target: T1, Cereblon/Ikaros (Homo sapiens) (UniProt Q96SW2+Q13422); assay: Protac activity at CRBN/IKZF1 in human MM1.S cells assessed as induction of IKZF1 degradation at 1 uM incubated for 6 hrs relative to control; type: cell-based
physchem = conditions: buffer, pH 7.4
Description: Lipophilicity, logD of the compound at pH 7.4 by HPLC analysis

[3] = target: Protein cereblon/Cyclin-dependent kinase 4 (Homo sapiens) (UniProt P11802+Q96SW2); assay: Protac activity at CRBN/CDK4 in human MM1.S cells assessed as protein levels at 1 uM measured after 72 hrs by Western blot analysis relative to control; type: cell-based
Sequence of Protein cereblon/Cyclin-dependent kinase 4 (Homo sapiens) (P11802 2-303 limits assumed): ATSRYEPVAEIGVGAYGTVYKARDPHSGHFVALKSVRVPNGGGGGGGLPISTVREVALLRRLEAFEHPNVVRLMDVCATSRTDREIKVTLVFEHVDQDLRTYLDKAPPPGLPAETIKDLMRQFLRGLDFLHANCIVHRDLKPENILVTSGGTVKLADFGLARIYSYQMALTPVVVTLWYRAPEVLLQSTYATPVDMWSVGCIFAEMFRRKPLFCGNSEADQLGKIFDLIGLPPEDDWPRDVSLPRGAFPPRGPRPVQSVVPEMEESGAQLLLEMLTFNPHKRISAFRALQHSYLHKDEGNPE
Sequence of Protein cereblon/Cyclin-dependent kinase 4 (Homo sapiens) (Q96SW2 whole entry partner): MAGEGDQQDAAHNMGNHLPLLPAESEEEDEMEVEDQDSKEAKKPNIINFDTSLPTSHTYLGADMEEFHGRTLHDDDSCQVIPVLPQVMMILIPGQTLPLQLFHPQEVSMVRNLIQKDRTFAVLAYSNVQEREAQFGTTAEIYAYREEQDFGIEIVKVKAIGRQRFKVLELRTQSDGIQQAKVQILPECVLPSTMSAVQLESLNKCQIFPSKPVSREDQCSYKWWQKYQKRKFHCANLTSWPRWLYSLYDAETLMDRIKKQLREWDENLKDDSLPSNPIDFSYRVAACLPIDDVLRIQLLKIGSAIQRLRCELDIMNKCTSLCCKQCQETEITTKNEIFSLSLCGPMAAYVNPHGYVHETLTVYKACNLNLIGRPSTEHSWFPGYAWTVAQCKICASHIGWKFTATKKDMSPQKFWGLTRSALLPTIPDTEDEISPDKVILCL

[4] = target: T1, Cereblon/Ikaros (Homo sapiens); assay: Protac activity at CRBN/IKZF1 in human MM1.S cells assessed as protein levels at 1 uM measured after 72 hrs by Western blot analysis relative to control; type: cell-based
[5] = target: Protein cereblon/Zinc finger protein Aiolos (Homo sapiens) (UniProt Q96SW2+Q9UKT9); assay: Protac activity at CRBN/IKZF3 in human MM1.S cells assessed as protein levels at 1 uM measured after 72 hrs by Western blot analysis relative to control; type: cell-based
Sequence of Protein cereblon/Zinc finger protein Aiolos (Homo sapiens) (Q96SW2 whole entry, looked up): as the sequence (Q96SW2 whole entry partner) above
Sequence of Protein cereblon/Zinc finger protein Aiolos (Homo sapiens) (Q9UKT9 whole entry, looked up): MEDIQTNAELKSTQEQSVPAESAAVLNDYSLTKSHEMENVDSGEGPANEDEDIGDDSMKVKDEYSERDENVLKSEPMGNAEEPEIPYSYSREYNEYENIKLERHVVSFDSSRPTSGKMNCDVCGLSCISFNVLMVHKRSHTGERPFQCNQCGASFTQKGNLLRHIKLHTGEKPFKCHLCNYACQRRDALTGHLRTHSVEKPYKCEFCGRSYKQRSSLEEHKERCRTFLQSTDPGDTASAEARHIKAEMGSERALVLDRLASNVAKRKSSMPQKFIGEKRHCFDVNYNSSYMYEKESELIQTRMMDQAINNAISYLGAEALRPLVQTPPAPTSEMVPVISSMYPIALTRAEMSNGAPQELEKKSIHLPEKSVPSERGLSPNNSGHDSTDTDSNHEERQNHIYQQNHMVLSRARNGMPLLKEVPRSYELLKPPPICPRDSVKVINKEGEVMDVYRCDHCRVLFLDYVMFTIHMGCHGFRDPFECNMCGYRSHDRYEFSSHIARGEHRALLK

[6] = Protac activity at CRBN/IKZF3 in human MM1.S cells assessed as induction of IKZF3 degradation at 0.1 to 1 uM measured after 16 hrs by Western blotting analysis; conditions: dose 0.1-1 µM
[7] = Stability in human plasma assessed as half life measured up tp 120 mins by HPLC analysis; type: ADME, cell-free
MM1.S = assay: Cytotoxicity against human MM1.S cells assessed as effect on cell viability at 0.1 to 10 uM incubated for 72 hrs by luminescence based analysis; type: functional; conditions: dose 0.1-10 µM

Row | remaining at 24 h [1] [%] | Activity [2] [%] | logD (physchem) | Structure (SMILES) | further results
1 | 1 |  | 1.9 | O=C1CCC(N2C(=O)c3ccc(C(=O)NCCOCCOCCOCc4ccccc4)cc3C2=O)C(=O)N1 (centres undefined) | 
2 | 3 |  | 1.9 | O=C1CCC(N2C(=O)c3cccc(C(=O)NCCOCCOCCOCc4ccccc4)c3C2=O)C(=O)N1 (centres undefined) | 
3 | 56 | 6 | 1.8 | O=C(CNc1ccc2c(c1)C(=O)N(C1CCC(=O)NC1=O)C2=O)NCCOCCOCCOCc1ccccc1 (centres undefined) | 
4 | 46 | 5 | 2.6 | O=C1CCC(N2C(=O)c3cccc(OCCOCCOCCOCc4ccccc4)c3C2=O)C(=O)N1 (centres undefined) | 
5 | 15 | 14 | 2.6 | O=C1CCC(N2C(=O)c3cccc(NC(=O)COCCOCCOCc4ccccc4)c3C2=O)C(=O)N1 (centres undefined) | half-life [7]: 1.97 h
6 | 15 | 0 | 2 | O=C(COc1ccc2c(c1)C(=O)N(C1CCC(=O)NC1=O)C2=O)NCCOCCOCCOCc1ccccc1 (centres undefined) | 
7 | 17 | 0 | 2 | O=C(COc1cccc2c1C(=O)N(C1CCC(=O)NC1=O)C2=O)NCCOCCOCCOCc1ccccc1 (centres undefined) | 
8 | 21 | 73 | 2 | O=C(COCCOCCOCc1ccccc1)NCc1cccc2c1C(=O)N(C1CCC(=O)NC1=O)C2=O (centres undefined) | half-life [7]: > 2 h
9 | 80 | 64 | 3.1 | O=C1CCC(N2C(=O)c3cccc(NCCOCCOCCOCc4ccccc4)c3C2=O)C(=O)N1 (centres undefined) | half-life [7]: > 2 h
10 | 68 | 29 | 2.1 | O=C(CNc1cccc2c1C(=O)N(C1CCC(=O)NC1=O)C2=O)NCCOCCOCCOCc1ccccc1 (centres undefined) | half-life [7]: > 2 h

More lines, now with the values behind:

Row | Structure (SMILES) | remaining at 24 h [1] [%] | Activity [2] [%] | logD (physchem) | further results
11 | O=C1CCC(N2C(=O)c3ccc(NC(=O)COCCOCCOCc4ccccc4)cc3C2=O)C(=O)N1 (centres undefined) | 11 | 1 | 2.3 | 
12 | CC(=O)c1c(C)c2cnc(Nc3ccc(N4CCN(CC(=O)NCCOCCOCCOCC(=O)Nc5cccc6c5CN(C5CCC(=O)NC5=O)C6=O)CC4)cn3)nc2n(C2CCCC2)c1=O (centres undefined) |  |  |  | Activity [3]: 56%; Activity [4]: > 95%; Activity [5]: > 95%; Activity [6]: inactive
13 | O=C1CCC(N2Cc3cc(NCCOCCOCCOCc4ccccc4)ccc3C2=O)C(=O)N1 (centres undefined) | 79 | 0 | 2.1 | 
14 | O=C1NCCCC1N1C(=O)c2cccc(OCCOCCOCCOCc3ccccc3)c2C1=O (centres undefined) | 99 |  |  | 
15 | O=C1CCC(N2Cc3cc(OCCOCCOCCOCc4ccccc4)ccc3C2=O)C(=O)N1 (centres undefined) | 73 | 16 | 2.2 | half-life [7]: > 2 h
16 | O=C1CCC(N2Cc3c(OCCOCCOCCOCc4ccccc4)cccc3C2=O)C(=O)N1 (centres undefined) | 78 | 22 |  | 
17 | O=C1c2cccc(OCCOCCOCCOCc3ccccc3)c2C(=O)N1C1CCCCC1 | 90 |  |  | 
18 | CC(=O)c1c(C)c2cnc(Nc3ccc(N4CCN(CC(=O)NCCOCCOCCOCCNC(=O)COc5cccc6c5C(=O)N(C5CCC(=O)NC5=O)C6=O)CC4)cn3)nc2n(C2CCCC2)c1=O (centres undefined) |  |  |  | Activity [3]: 66%; Activity [4]: > 95%; Activity [5]: > 95%; Activity [6]: inactive
19 | O=C1CCC(N2C(=O)c3ccc(NCCOCCOCCOCc4ccccc4)cc3C2=O)C(=O)N1 (centres undefined) | 70 | 19 | 2.6 | 
20 | O=C1CCC(N2C(=O)c3ccc(C#CCOCCOCCOCc4ccccc4)cc3C2=O)C(=O)N1 (centres undefined) | 1 |  | 3.3 | 
21 | O=C1CCC(N2Cc3cc(NC(=O)COCCOCCOCc4ccccc4)ccc3C2=O)C(=O)N1 (centres undefined) | 73 | 6 | 1.8 | 
22 | CC(=O)c1c(C)c2cnc(Nc3ccc(N4CCN(CC(=O)NCCOCCOCCOCC(=O)NCc5cccc6c5C(=O)N(C5CCC(=O)NC5=O)C6=O)CC4)cn3)nc2n(C2CCCC2)c1=O (centres undefined) |  |  |  | Activity (MM1.S): Active; Activity [3]: 68%; Activity [4]: > 95%; Activity [5]: > 95%; Activity [6]: Active
23 | CC(=O)c1c(C)c2cnc(Nc3ccc(N4CCN(CC(=O)NCCOCCOCCOCCNc5cccc6c5C(=O)N(C5CCC(=O)NC5=O)C6=O)CC4)cn3)nc2n(C2CCCC2)c1=O (centres undefined) |  |  |  | Activity (MM1.S): Active; Activity [3]: 26%; Activity [4]: 2%; Activity [5]: 2%
24 | O=C1CCC(N2Cc3c(NCCOCCOCCOCc4ccccc4)cccc3C2=O)C(=O)N1 (centres undefined) | 74 | 5 | 2.4 | half-life [7]: > 2 h
25 | O=C1CCC(N2Cc3c(NC(=O)COCCOCCOCc4ccccc4)cccc3C2=O)C(=O)N1 (centres undefined) | 79 | 0 | 1.6 | half-life [7]: 1.45 h
26 | O=C1CCC(N2C(=O)c3ccccc3C2=O)C(=O)N1CCOCCOCCOCc1ccccc1 (centres undefined) | 19 |  |  | 
27 | O=C1CCC(N2C(=O)c3cccc(C#CCOCCOCCOCc4ccccc4)c3C2=O)C(=O)N1 (centres undefined) | 6 |  | 3.2 | 
28 | O=C1CCC(N2C(=O)c3ccc(OCCOCCOCCOCc4ccccc4)cc3C2=O)C(=O)N1 (centres undefined) | 30 | 0 | 2.9 | half-life [7]: > 2 h
29 | O=C(COCCOCCOCc1ccccc1)NCc1ccc2c(c1)C(=O)N(C1CCC(=O)NC1=O)C2=O (centres undefined) | 16 | 0 | 1.8 | 
